Test results taken from patent US5081023A, “Antibiotic L53-18A and process for preparation thereof” (Toyo Yozo Company, Ltd., priority 1989, dated 1992).
Converted amounts (≈) assume the structure as drawn. Where two headings read alike, the source gives them in different places.

Key:
[1] = tested on: Staphylococcus aureus FDA 209P JC-1; experiment: Antimicrobial activity (MIC), Table 1; format: cell-based; conditions: FDA209P, read-out: Minimum growth inhibitory concentration
[2] = tested on: Staphylococcus epidermidis ATCC 27626; experiment: Antimicrobial activity (MIC), Table 1; format: cell-based; conditions: ATCC27626, read-out: Minimum growth inhibitory concentration
[3] = tested on: Streptococcus pyogenes N.Y.5; experiment: Antimicrobial activity (MIC), Table 1; format: cell-based; conditions: read-out: Minimum growth inhibitory concentration
[4] = tested on: Streptococcus agalactiae 1020; experiment: Antimicrobial activity (MIC), Table 1; format: cell-based; conditions: read-out: Minimum growth inhibitory concentration
Sarcina lutea ATCC 9341 = experiment: Antimicrobial activity (MIC), Table 1; format: cell-based; conditions: Micrococcus luteus, ATCC9341, read-out: Minimum growth inhibitory concentration
[5] = tested on: Bacillus subtilis ATCC 6633; experiment: Antimicrobial activity (MIC), Table 1; format: cell-based; conditions: ATCC6633, read-out: Minimum growth inhibitory concentration
[6] = tested on: Escherichia coli NIHJ JC-2; experiment: Antimicrobial activity (MIC), Table 1; format: cell-based; conditions: NIHJJC2, read-out: Minimum growth inhibitory concentration
[7] = tested on: Klebsiella pneumoniae NCTC 9632; experiment: Antimicrobial activity (MIC), Table 1; format: cell-based; conditions: NCTC9632, read-out: Minimum growth inhibitory concentration
[8] = tested on: Pseudomonas aeruginosa IAM 1095; experiment: Antimicrobial activity (MIC), Table 1; format: cell-based; conditions: IAM1095, read-out: Minimum growth inhibitory concentration
mice = experiment: Acute toxicity; format: in vivo; conditions: ip, 10 per group, mice surviving at this dose
Procedure: (16) Acute toxicity: 300 mg/kg (ip) with surviving mice (10 mice per one group).

Solubility = format: physicochemical
[9] = Distinction of acidic or basic; format: physicochemical
Gram-positive bacteria = experiment: Antibacterial activity; format: cell-based
[10] = tested on: Saccharopolyspora sp. L53-18; experiment: Resistance to antibiotic (MIC), Table 3; format: cell-based
From the text: [according to J. Antibiot. 32: 180-186 (1976)]

[11] = tested on: Saccharopolyspora sp. L53-18; experiment: Resistance to lysozyme; format: cell-based; conditions: producing strain L53-18
From the text: (8) Resistance to lysozyme: sensitive [Inter. J. System. Bacteriol. 27: 176-178 (1977)]

[12] = resistance of producing strain L53-18 to antibiotics
[13] = resistance of producing strain L53-18 to antibiotics, read-out: MIC

CC[C@H]1OC(=O)[C@H](C)[C@@H](O[C@H]2C[C@@](C)(OC)[C@@H](O)[C@H](C)O2)[C@H](C)[C@@H](O[C@@H]2O[C@H](C)C[C@H](N(C)C)[C@H]2O)[C@](C)(O)C[C@@H](C)C2=C(C)C(=O)[C@]1(C)O2 [Antibiotic L53-18A]
MIC [1]: 0.2 µg/mL (≈ 0.28 µM) | MIC [2]: 0.2 µg/mL (≈ 0.28 µM) | MIC [3]: < 0.05 µg/mL | MIC [4]: < 0.05 µg/mL | MIC (Sarcina lutea ATCC 9341): < 0.05 µg/mL | MIC [5]: < 0.05 µg/mL | MIC [6]: > 100 µg/mL | MIC [7]: > 100 µg/mL | MIC [8]: > 100 µg/mL | Acute toxicity (dose with surviving mice) (mice): 300 mg/kg | Solubility (Solubility): Soluble in methanol, ethanol, acetone, ethyl acetate, chloroform, benzene and acidic water | Distinction of acidic or basic [9]: basic | antibacterial activity to Gram-positive bacteria (Gram-positive bacteria): shows antibacterial activity to Gram-positive bacteria

Neomycin
MIC [10, 12]: 63 µg/mL

CN[C@@H]1[C@H](O)[C@H](NC)[C@H]2O[C@@]3(O)C(=O)C[C@@H](C)O[C@H]3O[C@@H]2[C@H]1O [Spectinomycin]
MIC [10, 13]: > 1000 µg/mL

[H]/N=C(/N)N[C@H]1[C@H](O)[C@@H](O)[C@H](O[C@@H]2O[C@@H](C)[C@](O)(C=O)[C@H]2O[C@@H]2O[C@@H](CO)[C@H](O)[C@@H](O)[C@@H]2NC)[C@@H](N/C(N)=N\[H])[C@@H]1O [Streptomycin]
MIC [10, 13]: 31 µg/mL (≈ 53.3 µM)

CCCC(=O)O[C@H]1[C@H](C)O[C@@H](O[C@H]2[C@H](N(C)C)[C@@H](O)[C@H](O[C@H]3[C@@H](CC=O)C[C@@H](C)[C@@H](O)/C=C/C=C/C[C@@H](C)OC(=O)C[C@@H](O)[C@@H]3OC)O[C@@H]2C)C[C@@]1(C)O [Leucomycin A5]
MIC [10, 13]: > 1000 µg/mL

NC[C@@H]1O[C@H](O[C@H]2[C@@H](O)[C@H](O[C@@H]3[C@@H](O)[C@H](N)C[C@H](N)[C@H]3O[C@H]3O[C@H](CO)[C@@H](O)[C@H](O)[C@H]3N)O[C@@H]2CO)[C@H](N)[C@@H](O)[C@@H]1O [Paromomycin]
MIC [10, 13]: 31 µg/mL (≈ 50.4 µM)

NC[C@H]1O[C@H](O[C@H]2[C@H](O)[C@@H](O[C@H]3O[C@H](CO)[C@@H](O)[C@H](N)[C@H]3O)[C@H](N)C[C@@H]2N)[C@H](O)[C@@H](O)[C@@H]1O [Kanamycin]
MIC [10]: 63 µg/mL (≈ 130 µM)

lysozyme
Resistance to lysozyme [11]: sensitive

Gentamicin
MIC [10, 12]: 16 µg/mL

CO[C@H]1/C=C/O[C@@]2(C)Oc3c(C)c(O)c4c(O)c(c(/C=N/N5CCN(C)CC5)c(O)c4c3C2=O)NC(=O)/C(C)=C\C=C\[C@H](C)[C@H](O)[C@@H](C)[C@@H](O)[C@@H](C)[C@H](OC(C)=O)[C@@H]1C [Rifampicin]
MIC [10, 13]: < 16 µg/mL
